Laboratory results as given in ChEMBL document CHEMBL4483862, “Open-source discovery of chemical leads for next-generation chemoprotective antimalarials” (2018).

Test system: Plasmodium berghei
Experiment: Luciferase/luciferin-expressing antifolate-resistant parasites were used to infect a culture of HepG2 cells that were pre-incubated with compounds. Infected hepatocytes emit light due to the luciferase reaction. Assay results are presented as the percent inhibition of light emission compared to control. […]
Type: functional
Settings: sporozoite; for IC90: read-out: LUCIFERASE INFECTION ASSAY - IC90
[1] = PBLUC_HILL_SLOPE 3.04, PBLUC_R_SQUARED 0.101, read-out: LUCIFERASE INFECTION ASSAY - IC50

Structure (SMILES) | IC90 [µM] | further results
O=C(C1CC1)N1CCc2sccc2C1c1ccc(Cl)cc1 (stereo not given) | > 10.4 | IC50 (PBLUC_HILL_SLOPE 3.12, PBLUC_R_SQUARED 0.0785, read-out: LUCIFERASE INFECTION ASSAY - IC50): 9.69 µM
COc1ccc(-c2c[n+]3c4n2CCCCC4=C(c2ccccc2)C3)cc1 | > 10 | IC50 (PBLUC_HILL_SLOPE 3.06, PBLUC_R_SQUARED 0.525, read-out: LUCIFERASE INFECTION ASSAY - IC50): 6.77 µM
NC1=NC(=O)C(Cc2ccc(OC(F)(F)F)cc2)S1 (stereo not given) | 1.02 | IC50 (PBLUC_HILL_SLOPE 3.06, PBLUC_R_SQUARED 0.937, read-out: LUCIFERASE INFECTION ASSAY - IC50): 0.497 µM
CS(=O)(=O)c1ccc(-c2cnc3c(NC=O)cc(-c4ccsc4)cn23)cc1 | 4.59 | IC50 (PBLUC_HILL_SLOPE 3.07, PBLUC_R_SQUARED 0.32, read-out: LUCIFERASE INFECTION ASSAY - IC50): 2.24 µM
N#Cc1ccc(-c2cnc3cnc(-c4cccs4)cn23)cc1 | 9.18 | IC50 (PBLUC_HILL_SLOPE 3.09, PBLUC_R_SQUARED 0.489, read-out: LUCIFERASE INFECTION ASSAY - IC50): 4.51 µM
COc1ccc(-c2cnc3cnc(-c4cccs4)cn23)cc1 | 8.31 | IC50 (PBLUC_HILL_SLOPE 3.03, PBLUC_R_SQUARED 0.723, read-out: LUCIFERASE INFECTION ASSAY - IC50): 4.02 µM
Cc1ccc(C)c(Nc2sc(-c3cc(=O)oc4c(C)c(C)ccc34)c(N)c2-c2nc3ccccc3s2)c1 | 9.38 | IC50 (PBLUC_HILL_SLOPE 3.07, PBLUC_R_SQUARED 0.45, read-out: LUCIFERASE INFECTION ASSAY - IC50): 4.59 µM
COCCN1C(=O)N(Cc2cccc(OC)c2)C(=O)C12CCN(C1CCc3ccccc3C1)CC2 (stereo not given) | > 6.91 | IC50 (PBLUC_HILL_SLOPE 3.06, PBLUC_R_SQUARED 0.614, read-out: LUCIFERASE INFECTION ASSAY - IC50): 4.45 µM
COc1ccc(-c2cnc3cnc(-c4cnn(C)c4)cn23)cn1 | > 10.8 | IC50 (PBLUC_HILL_SLOPE 3.07, PBLUC_R_SQUARED 0.552, read-out: LUCIFERASE INFECTION ASSAY - IC50): 6.4 µM
Cc1ccc(-n2c(C)cc(C(=O)CNCc3ccccc3)c2C)cc1 | > 10 | IC50 [1]: 9.63 µM
CC(C)Cn1c(SCC(=O)Nc2ccccc2C(=O)OC2CC(C)CCC2C(C)C)nnc1-c1cccc(S(=O)(=O)N2CCOCC2)c1 (stereo not given) | > 10 | IC50 (PBLUC_HILL_SLOPE 3.05, PBLUC_R_SQUARED 0.72, read-out: LUCIFERASE INFECTION ASSAY - IC50): 5.79 µM
CSc1ccc(-c2nccc3n[nH]c(C4CC4)c23)cc1 | > 10 | IC50 (PBLUC_HILL_SLOPE 3.07, PBLUC_R_SQUARED 0.601, read-out: LUCIFERASE INFECTION ASSAY - IC50): 5.61 µM
O=C(CSc1nnc(-c2c[nH]c3ccccc23)n1C1CC1)NC1CCN(Cc2ccccc2)C1 (stereo not given) | 8.82 | IC50 (PBLUC_HILL_SLOPE 3.03, PBLUC_R_SQUARED 0.422, read-out: LUCIFERASE INFECTION ASSAY - IC50): 4.27 µM
Cn1c(Nc2ccccc2)nc2cnc(-c3ccc(F)c(Cl)c3)cc21 | > 10 | IC50 (PBLUC_HILL_SLOPE 3.09, PBLUC_R_SQUARED 0.397, read-out: LUCIFERASE INFECTION ASSAY - IC50): 7.42 µM
CC(C)(C)c1ccc(CSc2nnc(-c3ccc(C(C)(C)C)cc3)n2Cc2ccco2)cc1 | > 7.18 | IC50 (PBLUC_HILL_SLOPE 3.03, PBLUC_R_SQUARED 0.36, read-out: LUCIFERASE INFECTION ASSAY - IC50): 5.09 µM
COc1ccc(OC)c(CCNc2nc3cnc(-c4cc(OC)c(OC)c(OC)c4)cc3n2C)c1 | > 10 | IC50 (PBLUC_HILL_SLOPE 3.05, PBLUC_R_SQUARED 0.174, read-out: LUCIFERASE INFECTION ASSAY - IC50): 7.61 µM
CC(C)(C)c1ccc(-c2cnc3cnc(-c4cccc(C(N)=O)c4)cn23)cc1 | > 8.91 | IC50 (PBLUC_HILL_SLOPE 3.04, PBLUC_R_SQUARED 0.545, read-out: LUCIFERASE INFECTION ASSAY - IC50): 6.86 µM
Cc1cccc(-c2nn(-c3ccccc3)cc2/C=C/C(=O)c2c(C)[nH]c(=O)[nH]c2=O)c1 | > 10 | IC50 (PBLUC_HILL_SLOPE 3.1, PBLUC_R_SQUARED 0.412, read-out: LUCIFERASE INFECTION ASSAY - IC50): 5.95 µM
CN(C)C1(CNC(=O)c2ccc(Cl)c(S(=O)(=O)N(C)c3ccc(Cl)cc3)c2)CCCCC1 | > 10 | IC50 (PBLUC_HILL_SLOPE 3.05, PBLUC_R_SQUARED 0.312, read-out: LUCIFERASE INFECTION ASSAY - IC50): 8.97 µM
CCCc1cc(=O)nc(SCC(=O)C23CC4CC(CC(C4)C2)C3)[nH]1 | 9.67 | IC50 (PBLUC_HILL_SLOPE 3.05, PBLUC_R_SQUARED 0.0755, read-out: LUCIFERASE INFECTION ASSAY - IC50): 4.7 µM

Structure (SMILES) | IC90 [µM] | further results
CCOC(=O)c1nn(CCc2ccccc2)c2c1CN(C(=O)c1cc(C)n[nH]1)CC2 | > 8.1 | IC50 (PBLUC_HILL_SLOPE 3.03, PBLUC_R_SQUARED 0.7, read-out: LUCIFERASE INFECTION ASSAY - IC50): 4.26 µM
CCCc1ccc(C(=O)/C(C#N)=c2\s/c(=C\c3cccs3)c(=O)n2-c2cc(C)ccc2C)cc1 | > 10 | IC50 (PBLUC_HILL_SLOPE 3.09, PBLUC_R_SQUARED 0.669, read-out: LUCIFERASE INFECTION ASSAY - IC50): 6.42 µM
O=C(/C=N/Nc1ncc(C(F)(F)F)cc1Cl)c1ccccn1 | > 10 | IC50 (PBLUC_HILL_SLOPE 3.06, PBLUC_R_SQUARED 0.0968, read-out: LUCIFERASE INFECTION ASSAY - IC50): 8.78 µM
O=c1nc(-c2ccc(Cl)cc2)oc2ccccc12 | 10.8 | IC50 (PBLUC_HILL_SLOPE 3.1, PBLUC_R_SQUARED 0.539, read-out: LUCIFERASE INFECTION ASSAY - IC50): 5.33 µM
Cn1c(Nc2ccccc2)nc2cnc(-c3ccc4ccccc4c3)cc21 | > 10 | IC50 (PBLUC_HILL_SLOPE 3.04, PBLUC_R_SQUARED 0.156, read-out: LUCIFERASE INFECTION ASSAY - IC50): 6.85 µM
Cc1nn(C)c2nc(-c3cccs3)cc(C(=O)Nc3ccccc3C(=O)NCC3CCCO3)c12 (stereo not given) | > 10 | IC50 (PBLUC_HILL_SLOPE 3.11, PBLUC_R_SQUARED 0.411, read-out: LUCIFERASE INFECTION ASSAY - IC50): 5.11 µM
CN(Cc1ccccc1)S(=O)(=O)c1ccc(Cl)c(C(=O)Nc2nnc(C(F)(F)F)[nH]2)c1 | 7.66 | IC50 (PBLUC_HILL_SLOPE 3.05, PBLUC_R_SQUARED 0.465, read-out: LUCIFERASE INFECTION ASSAY - IC50): 3.73 µM
CCNC(=O)c1cc2c(s1)CCC(C(C)(C)C)C2 (stereo not given) | > 10 | IC50 (PBLUC_HILL_SLOPE 3.05, PBLUC_R_SQUARED 0.267, read-out: LUCIFERASE INFECTION ASSAY - IC50): 6.74 µM
Cc1cc(C)c(CSCCNC(=O)Nc2ccccc2)c(C)c1 | > 10 | IC50 (PBLUC_HILL_SLOPE 3.02, PBLUC_R_SQUARED 0.314, read-out: LUCIFERASE INFECTION ASSAY - IC50): 4.91 µM
O=C(CN1CCC(C(=O)Nc2ccccc2O)CC1)Nc1nc(-c2cccc([N+](=O)[O-])c2)cs1 | > 10 | IC50 (PBLUC_HILL_SLOPE 3.03, PBLUC_R_SQUARED 0.0575, read-out: LUCIFERASE INFECTION ASSAY - IC50): 6.47 µM
O=[N+]([O-])c1ccc(-c2noc(CCOc3ccc(F)cc3)n2)o1 | 9.89 | IC50 (PBLUC_HILL_SLOPE 3.03, PBLUC_R_SQUARED 0.707, read-out: LUCIFERASE INFECTION ASSAY - IC50): 4.78 µM
COc1ccc(CCN(C)CC(O)COc2ccc(C(C)(C)CC(C)(C)C)cc2)cc1OC (stereo not given) | > 10 | IC50 [1]: 9.63 µM
Cn1c(=O)c2ccc(C(=O)Nc3cccc(C(=O)Nc4cccc(C(F)(F)F)c4)c3)nc2n(C)c1=O | > 10 | IC50 (PBLUC_HILL_SLOPE 3.03, PBLUC_R_SQUARED 0.059, read-out: LUCIFERASE INFECTION ASSAY - IC50): 6.54 µM
CCN(CC)c1ccc(/C=N/NC(=S)NC(C)C)c(O)c1 | > 10 | IC50 (PBLUC_HILL_SLOPE 3.12, PBLUC_R_SQUARED 0.566, read-out: LUCIFERASE INFECTION ASSAY - IC50): 7.29 µM
CC1=NN(c2ccccc2)C(=O)/C1=C\c1c(C)nn(-c2ccccc2)c1Sc1nc2ccccc2s1 | > 10 | IC50 (PBLUC_HILL_SLOPE 3.11, PBLUC_R_SQUARED 0.577, read-out: LUCIFERASE INFECTION ASSAY - IC50): 6.6 µM
COc1ccc(CCC(=O)NNC(=O)c2ccc3ccccc3n2)cc1Br | 5.65 | IC50 (PBLUC_HILL_SLOPE 3.11, PBLUC_R_SQUARED 0.471, read-out: LUCIFERASE INFECTION ASSAY - IC50): 2.79 µM
O=C(Cc1csc(Cc2ccccc2)n1)N1CCc2ccc(O)cc2C1 | > 10 | IC50 (PBLUC_HILL_SLOPE 3.03, PBLUC_R_SQUARED 0.78, read-out: LUCIFERASE INFECTION ASSAY - IC50): 6.09 µM
COc1ccc(C2=NN(c3ccccc3)C(c3cn(-c4ccccc4)nc3-c3cccnc3)C2)cc1 (stereo not given) | 9.32 | IC50 (PBLUC_HILL_SLOPE 3.03, PBLUC_R_SQUARED 0.661, read-out: LUCIFERASE INFECTION ASSAY - IC50): 4.51 µM
O=C(Nc1ccc(OC(F)(F)F)cc1)Nc1ccc2nc(-c3ccc(F)c(Cl)c3)nn2c1 | > 10 | IC50 (PBLUC_HILL_SLOPE 3.06, PBLUC_R_SQUARED 0.207, read-out: LUCIFERASE INFECTION ASSAY - IC50): 7.2 µM
CC(C)C(NC(=O)c1ccc(F)cc1)C(=O)NCC1Cc2ccccc21 (stereo not given) | > 10 | IC50 (PBLUC_HILL_SLOPE 3.06, PBLUC_R_SQUARED 0.302, read-out: LUCIFERASE INFECTION ASSAY - IC50): 6.96 µM
